How the values were obtained:
Format in all cases: cell-based
[1] = tested on: PC3 cells; experiment: RT-qPCR expression of bimodal genes in PC3 cells with and without R1881; details: R1881 1 nM, androgen-independent PC3 cells
Procedure: (§1) LNCaP and PC3 cells routinely grown in the laboratory were transfected with SMARTpool siRNAs specifically targeting TGFBR2 and GSK3B, respectively, according to the manufacturer protocol (ThermoFisher). Unspecific scrambled siRNA was used as a negative control. Total RNA were prepared from transfected and control cells or from cells treated with R1881 (1 nM), a synthetic androgen agonist. Reverse transcription was performed using the SuperScript III kit (Invitrogen) on a Veriti 96-well Thermocycler (Applied Biosystems). Relative expression values of genes were shown as the average fold changes (2−ΔΔCt) from three individual experiments using UBB as an internal control and the untreated expression designated as 1.

[2] = tested on: LNCaP cells; experiment: RT-qPCR expression of bimodal genes in LNCaP cells with and without R1881; details: R1881 1 nM, relative to untreated cells, period of 36 hrs
Procedure: as §1

[3] = tested on: LNCaP cells; experiment: Cell proliferation, migration, and invasion assays (IncuCyte ZOOM), LNCaP; details: R1881 1 nM (low-dose)
Procedure: (§2) Cells were seeded in triplicate wells of a 96-well plate, and every three hours four independent images were taken per well and quantified for confluence percentage using the IncuCyte ZOOM system. To eliminate variations of cell size and seeding densities, relative cell densities at all time points' values were normalized to the initial time point's average confluence.
(§3) Cell monolayers were seeded to optimized confluent levels in a 96-well ImageLock Plate (Essen BioSciences). The 96-well WoundMaker created equal scratches in every well simultaneously for cell migration and invasion analysis (Essen BioSciences). For invasion assays, BD Matrigel™ Basement Membrane Matrix (BD Biosciences) was used for coating the ImageLock plates, creating a thick layer above the scratched monolayer, 0.1 and 4.0 mg/ml respectively. The IncuCyte ZOOM system's scan mode set to scratch wound and wide mode and captured 1 image every 3 hours. Migration and invasion were analyzed using the relative wound density percent (RWD %) metric.

[4] = tested on: PC3 cells; experiment: Cell proliferation, migration, and invasion assays (IncuCyte ZOOM), PC3; details: R1881 1 nM, androgen-independent PC3 cells
Procedure: as §2, §3

C[C@]1(O)CC[C@H]2[C@@H]3CCC4=CC(=O)CCC4=C3C=C[C@@]21C [R1881]
gene expression patterns [1]: did not alter
expression of CDKN1C [2]: further repressed
expression of CXCL6 [2]: further repressed
cell growth [3]: did not cause noticeable changes
invasion [3]: did not cause noticeable changes
migration [3]: did not cause noticeable changes
cellular phenotypes [4]: did not alter

— patent publication US20170076040A1, “SINGLE-CELL ANALYSIS AS A SENSITIVE AND SPECIFIC METHOD FOR EARLY CANCER DETECTION” (THE BOARD OF REGENTS OF THE UNIVERSITY OF TEXAS SYSTEM, priority 2014, published 2017)
